Assay results reported in patent US8153424B2, “Method of in vitro differentiation of neural stem cells, motor neurons and dopamine neurons from primate embryonic stem cells” (Wisconsin Alumni Research Foundation, priority 2001, dated 2012).

Assays:
Assay type in all cases: cell-based, human
[1] = test system: voltage-gated sodium channels
[2] = test system: voltage-activated sodium channels
[3] = test system: hESC-derived EBs (H9 and H9.2 lines); assay: Formation of neural tube-like structures from embryoid bodies in the presence of FGF2; conditions: total 350 EBs from H9 and H9.2 lines, 3 separate experiments
Protocol: Differentiation cultures of ESCs. ESC cultures were incubated with dispase (Gibco BRL, 0.1 mg/ml) at 37° C. for 30 minutes, which removed ESC colonies intact. The ES cell colonies were pelleted, resuspended in ESC medium without FGF2, and cultured for four days in a 25-cm^2 tissue culture flask (Nunc) with a daily medium change. ESC colonies grew as floating EBs whereas any remaining feeder cells adhered to the flask. The feeder cells were removed by transferring the EBs into a new flask. EBs (˜50/flask) were then plated in a 25-cm^2 tissue culture flask (Nunc) in DMEM/F12, supplemented with insulin (25 μg/ml), transferrin (100 μg/ml), progesterone (20 nM), putrescine (60 μM), sodium selenite (30 nM), and heparin (2 μg/ml) in the presence of FGF2 (20 ng/ml) (Zhang et al., supra, 2000; Zhang et al., supra, 1999).

[4] = test system: hESC-derived neural precursors; assay: BrdU incorporation by dissociated ES cell-derived neural precursors; conditions: FGF2 20 ng/ml, EGF 20 ng/ml, LIF 5 ng/ml; each alone
Protocol: Histochemical and immunohistochemical staining. To better visualize the rosette formations, cultures with rosettes were rinsed with PBS and fixed in 4% paraformaldehyde and 0.25% glutaraldehyde for 1 hour. The fixed cells were then processed for embedding in plastic resin as described (Zhang et al., supra, 1999). The cultured cells were then sectioned in 1-μm thickness and stained with toluidine blue. For immunostaining, the coverslip cultures were immunostained with the following primary antibodies detected by appropriate fluorescent secondary antibodies detailed elsewhere (Zhang et al., supra, 2000; Zhang et al., supra, 1999): anti-nestin (polyclonal, gift of Dr. R. McKay of NINDS, 1:1,000); anti-polysialylated neuronal cell adhesion molecule (PSA-NCAM, mouse IgM, gift of Dr. G. Rougon of University of Marseille, France, 1:200); anti-Musashi-1 (rat IgG, gift of Dr. H. Okano, University of Tokyo, Japan, 1:500); anti-GFAP (polyclonal, Dako, 1:1,000); anti-human GFAP (Sternberg monoclonals, 1:10,000); O4 (mouse IgM, hybridoma supernatant, 1:50); anti-tyrosine hydroxylase (TH, Pel Freez, 1:500). The remaining antibodies were from Sigma: anti-βIII-tubulin (mouse IgG, 1:500); anti-neurofilament (NF) 68 (mouse IgG, 1:1,000); anti-NF 200 (polyclonal, 1:5,000); anti-MAP2ab (mouse IgG, 1:250); anti-γ-aminobutyric acid (GABA, polyclonal, 1:10,000); anti-glutamate (mouse IgG, 1:10,000). For bromodeoxyuridine (BrdU) incorporation, 4 coverslip cultures in each group were incubated with 2 μM of BrdU for sixteen hours before the cultures were fixed in 4% paraformaldehyde, denatured with 1N HCl and processed for immunolabeling and cell counting (Zhang et al., supra, 2000; Zhang et al., supra, 1999).

[5] = test system: early rosette cells (Pax6+/Sox1-); assay: RT-PCR of rostrocaudal genes in early rosette cells; conditions: RA 0.001-1.0 μM or FGF2 20 ng/ml for seven days; dose-dependent
Protocol: RT-PCR amplifications were performed from hESC-derived neuroectodermal cells at different stages and motor neuron differentiation cultures. The following primers were used: […] ID NO:11), [NT] ID NO:12), 318 bp; […] ID NO:13), [NT] ID NO:14), 290 bp; […] ID NO:15), [NT] ID NO:16), 340 bp; […] ID NO:17), [NT] ID NO:18), 429 bp; HoxBl, [NT] ID NO:19), [NT] ID NO:20), 218 bp; GAPDH, [NT] ID NO:1), [NT] ID NO:2), 450 bpi Olig-2, [NT] ID NO:21), [NT] ID NO:22), 315 bp; […] ID NO:23), [NT] ID NO:24), 337 bp; […] ID NO:25), [NT] ID NO:26), 473 bp; […] ID NO:27), [NT] ID NO:28), 459 bp; SHH, [NT] ID NO:29), [NT] ID NO:30), 339 bp; […] ID NO:31), [NT] ID NO:32), 335 bp.

| Molecule | Effect on inward currents [1] | Effect on inward currents and action potentials [2] | EBs forming neural tube-like structures [3] [%] | BrdU incorporation (stimulation of precursor cell proliferation) [4] | Expression of Otx2 and Hox genes (Hox B1, B6, C5, C8) [5] |
| --- | --- | --- | --- | --- | --- |
| NC1=N[C@H](O)[C@H]2[C@H]3O[C@]4(O)O[C@@H]([C@@H](O)[C@@]2(N1)[C@@H]4O)[C@]3(O)CO [TTX, tetrodotoxin] | completely blocked | blocked |  |  |  |
| FGF2: growth factor FGF2 (Peprotech; R & D Systems) |  |  | 94 | elevated | decreased expression of Otx2 and increased expression of Hox genes |
